Counter-ions that a name gives are not always drawn.
Tests used:
[1] = test system: scopolamine-induced amnesia; experiment: passive avoidance paradigm, reversal of scopolamine-induced amnesia (crossover latency); assay type: in vivo, rats
Method: Male rats weighing between 80 and 100 grams were purchased from Hilltop Lab Animals Inc. (Scottdale, Pa.) and housed in hanging wire mesh cages in groups of three with water and rat chow available ad libitum. The room in which the animals were housed was controlled for both temperature and humidity, there was a standard 12 hour, light/dark cycle. To assess memory, the Gemini Avoidance System (San Diego Instruments) was utilized in a standard passive avoidance paradigm. Briefly, the avoidance apparatus consisted of a box (53×53×32 cm) with two compartments connected by an opening with a sliding door. The room in which the rat was placed was brightly lit, while the other room was dark. Initially, the animals were allowed to explore the apparatus and were then removed. During the memory acquisition trial, animals were placed in the light compartment. When an animal entered the dark compartment, the sliding door closed and a mild foot shock (1mA; 1 sec.) was delivered. The rat was then removed from the apparatus and returned to its cage. Twenty-four hours later the rat was again placed in the light side of the apparatus and the time latency to crossing to the dark room recorded. […] The acquisition of memory for the foot shock was assessed as an increased latency period before entering the dark room on the second day. Significant differences in crossover latency were determined by statistical analysis utilizing one-way analysis of a variance with a Dunnett's test post hoc. Significant differences between groups were interpreted as differences in memory acquisition resulting from the various treatments.
To determine the effect of DHEAS on memory, one hour before the acquisition trial […] of ten animals were injected intraperitoneally (IP) with one of the following several doses of DHEAS (5, 10, 20, 30, 50, 70 mg/Kg/ml dissolved saline) or saline. All animals in a given group were administered the same dosage. […] Twenty-four hours later the rats were again placed in the apparatus and the time delay before the animals entered the dark compartment was recorded.
Twenty-four hours later, crossover latency (the time delay before the rats crossed to the dark compartment) for the groups was determined.
(§1) In order to determine whether EMATE alone could enhance memory, four groups of rats (10 animals per group), were injected with EMATE (10 mg/Kg; IP), either four hours before the acquisition trial, or dally for 3, 10 or 15 days before the acquisition trial. Twenty-four hours following the acquisition trial crossover latency was determined. The dally dosage of EMATE was 10 mg/kg which inhibited the sulfatase enzyme for about three to four days.

steroid sulfatase = experiment: inhibition of steroid sulfatase after dosing; assay type: in vivo
Method: as §1
Sulfatase inhibitor EMATE can effect the memory enhancement of peripherally administered DHEAS, a neurosteroid, by inhibiting the metabolism of DHEAS to DHEA. […] A single dose (10 mg/kg) can inhibit greater than 98% of sulfatase after 24 hours. After 10 days of treatment the sulfatase activity in the whole body (including liver, adrenal gland, ovary, uterus and brain) is inhibited. The administration of EMATE alone can alter the equilibrium between the endogenous sulfated and unsulfated forms of neurosteroids in such a way as to enhance memory.

Row | SMILES | reversal of scopolamine-induced amnesia ([1]; EMATE alone 10 mg/Kg IP daily for 10 and 15 days before acquisition trial) | crossover latency ([1]; EMATE alone 10 mg/Kg IP daily for 10 days before acquisition trial) [s] | crossover latency ([1]; EMATE alone 10 mg/Kg IP daily for 15 days before acquisition trial) [s] | effect on crossover latency ([1]; EMATE alone, single dose 10 mg/Kg IP four hours before acquisition trial) | sulfatase activity in the whole body (including liver, adrenal gland, ovary, uterus and brain) (steroid sulfatase; after 10 days of treatment) | duration of inhibition of the sulfatase enzyme (steroid sulfatase; dosage 10 mg/kg) | kind of steroid sulfatase inhibition (steroid sulfatase; in vivo) | inhibition of sulfatase (steroid sulfatase; single dose 10 mg/kg, after 24 hours) | crossover latency (maximum effect) ([1]; DHEAS 20 mg/Kg IP one hour before acquisition trial, scopolamine 1 mg/Kg IP, latency 24 hours later) [s] | reversal of scopolamine-induced amnesia ([1]; DHEAS 5-70 mg/Kg IP one hour before acquisition trial, scopolamine 1 mg/Kg IP 30 minutes before, bell shaped dose response curve)
1 | C[C@]12CC[C@@H]3c4ccc(OS(N)(=O)=O)cc4CC[C@H]3[C@@H]1CCC2=O [EMATE, estrone - 3-sulfamate] | significant (p≤0.05) reversal of scopolamine-induced amnesia | 263.1 ± 69.7 | 297.0 ± 88.7 | failed to increase crossover latency | inhibited | about three to four | potent irreversible inhibitor | greater than 98% |  | 
2 | C[C@]12CC[C@H](OS(=O)(=O)O)CC1=CC[C@@H]1[C@@H]2CC[C@]2(C)C(=O)CC[C@@H]12 [DHEAS, dehydroepiandrosterone sulfate, reference compound] |  |  |  |  |  |  |  |  | 299.4 ± 83.5 | significant (p≤0.05), reversal of scopolamine-induced amnesia
